Measured values from patent publication US8106044B2, “8-{4-[3-(5-fluoro-1H-indol-3-yl)-propyl]-piperazin-1-yl}-2-methyl-4H-benzo[1,4]oxazin-3-one mesylate with high affinity for the dopamine D2 receptor and the serotonin reuptake site” (Solvay Pharmaceuticals B.V., priority 2001, dated 2012).
Where a name gives a salt, the structure may show the parent alone.

Experiments:
[1] = bio-availability; settings: in vivo
[2] = solubility in water; type: physicochemical; settings: in comparison with the free base

bio-availability [1]: good
Structure (SMILES): CC1Oc2c(cccc2N2CCN(CCCc3c[nH]c4ccc(F)cc34)CC2)NC1=O (centres unmarked) [mesylate, 8-{4-[3-(5-fluoro-1H-indol-3-yl)-propyl]-piperazin-1-yl}-2-methyl-4H-benzo[1,4]oxazin-3-one mesylate]
solubility in water [2]: much better soluable in water than the free base
